Like-named read-outs stand apart in the source and are kept apart here.
Target: T1, Aβ1-42 aggregates (Homo sapiens, UniProt P05067)
T1 construct: Aβ1-42 aggregates (Peptide Institute, Inc, Osaka) were dissolved in 0.1 mol/L phosphate-buffered saline; purchased Peptide Institute, Inc., Osaka
Assay: [^125I]IMPY binding inhibition experiment (Example 5)
Conditions: for binding property to Aβ1-42 aggregates: [^125I]IMPY binding inhibition, result in words
Method: Aβ1-42 aggregates (Peptide Institute, Inc, Osaka) were dissolved in 0.1 mol/L phosphate-buffered saline (hereinafter referred to as PBS) to 0.25 mg/mL and incubated at 37° C. for 42 hours to prepare an Aβ1-42 aggregate PBS solution. This was further diluted 1:100 with PBS to 2.5 μg/mL and used for an assay.
The mixture was filtered through Whatman (R) GF/B filter, and a γ counter was used to measure the radioactivity of the filter. The measured radioactivity values were used to prepare an inhibition curve to calculate IC50. In addition, the following mathematical expression (1):
was used to calculate an inhibition constant (Ki).

[1] = inhibition of [^125I]IMPY binding to Aβ1-42 aggregates

T1 sequence (P05067 672-713 limits assumed): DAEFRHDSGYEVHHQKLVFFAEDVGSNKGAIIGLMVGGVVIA

Ki [nM]	Ki [1] [nM]	SMILES	binding property to Aβ1-42 aggregates
0.947	–	CN(C)c1ccc(-c2cnc3cc(OCCF)ccc3n2)cc1 [Compound D3, 4-(6-(2-Fluoroethoxy)quinoxalin-2-yl)-N,N-dimethylaniline]	sufficiently high binding property
–	1180	Nc1ccc(-c2cnc3ccc(OCCF)cc3n2)cc1 [Compound E1, 4-(7-(2-Fluoroethoxy)quinoxalin-2-yl)aniline]	not each confirmed to have a sufficient binding property
–	758	CNc1ccc(-c2cnc3ccc(OCCF)cc3n2)cc1 [Compound E2, 4-(7-(2-Fluoroethoxy)quinoxalin-2-yl)-N-methylaniline]	not each confirmed to have a sufficient binding property

SMILES	Ki [nM]	Ki [1] [nM]	binding property to Aβ1-42 aggregates
CN(C)c1ccc(-c2cnc3ccc(OCCF)cc3n2)cc1 [Compound E3, 4-(7-(2-Fluoroethoxy)quinoxalin-2-yl)-N,N-dimethylaniline]	–	111	sufficiently high binding property

Reference: patent US20140088306A1, “RADIOACTIVE FLUORINE-LABELED QUINOXALINE COMPOUND” (Nihon Medi-Physics Co., Ltd., priority 2012, published 2014)
